From patent publication US20100029710A1, “COMPOUNDS HAVING BOTH ANGIOTENSIN II RECEPTOR ANTAGONISM AND PPARy ACTIVATING ACTIVITIES” (Pfizer Products Inc., priority 2006, published 2010)
pEC50, pIC50: −log10 of the molar value.

Assays:
[1] = target: T1, Human recombinant AT1 receptor (Homo sapiens, UniProt P30556); test: AT1 receptor radioligand binding (flashplate); conditions: 125I Sar1,Ile8-Angiotensin II radioligand
T1 construct: purchased
T1 sequence (P30556 1-359): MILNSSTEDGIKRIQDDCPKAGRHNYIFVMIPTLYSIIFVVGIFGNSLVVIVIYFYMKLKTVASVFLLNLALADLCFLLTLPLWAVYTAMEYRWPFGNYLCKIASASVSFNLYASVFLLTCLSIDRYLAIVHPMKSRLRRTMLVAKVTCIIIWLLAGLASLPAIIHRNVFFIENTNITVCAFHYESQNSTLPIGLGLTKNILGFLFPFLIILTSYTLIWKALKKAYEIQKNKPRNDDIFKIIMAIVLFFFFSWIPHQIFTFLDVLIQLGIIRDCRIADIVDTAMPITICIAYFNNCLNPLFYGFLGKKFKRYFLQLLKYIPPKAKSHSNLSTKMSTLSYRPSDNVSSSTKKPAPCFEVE
Description: Angiotensin II receptor antagonist activity may be determined using commercially available flashplates coated with the AT1 or AT2 receptor which provide a rapid and high throughput means to evaluate compounds compared to traditional filtration based assays (Regina M. Van Der Hee et al., Journal of Biomolecular Screening 10(2); 2005; 118-126).
AT1 receptor affinity was determined in a radioligand binding format using commercially available flashplate technology. Human recombinant AT1 receptor were coated on the wells of a 96 well flashplate and test compounds were diluted and added to wells at a final concentration range of 50 μM to 1 μM. Total binding was determined in the absence of compound and non-specific binding in the presence of 10 μM cold Angiotensin II. ^125I labeled Sar^1, Ile^8-Angiotensin II was added to all wells at Kd concentration and left for 2 hours at room temperature to equilibrate. Plates were read on a TopCount (Perkin Elmer) and concentration-response curves constructed using commercial curve fitting software. The Ki was determined via interpolation and the use of the Cheng-Prussof equation.

[2] = target: T2, human PPARγ LBD bound to Gal4 DBD (Homo sapiens, UniProt P37231); test: PPARγ transfection luciferase reporter assay in HepG2 cells; type: cell-based; conditions: for Emax: HepG2, 24 h, compared to full agonist response (standard TZD full agonist), read-out: PPARγ % activation; for pEC50: HepG2, 24 hours exposure
T2 construct: expressed in transfected cells; host or cells: HepG2
T2 sequence (P37231 238-503 limits assumed): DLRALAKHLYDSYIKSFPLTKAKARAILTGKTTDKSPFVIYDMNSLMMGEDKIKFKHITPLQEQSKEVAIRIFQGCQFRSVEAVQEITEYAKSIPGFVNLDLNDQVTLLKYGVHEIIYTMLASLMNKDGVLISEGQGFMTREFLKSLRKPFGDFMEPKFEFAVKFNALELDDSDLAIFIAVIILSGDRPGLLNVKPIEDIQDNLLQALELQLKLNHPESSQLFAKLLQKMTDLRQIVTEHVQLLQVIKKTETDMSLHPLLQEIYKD
Description: PPARγ agonist activity may be determined by a cell line transiently transfected with PPARγ bound to a DNA binding domain that controls luciferase expression. The degree of receptor agonism is measured by the amount of luciferase activity after compound treatment. The ratio of treated cells over vehicle control cells provides a measure of fold activation and allows an EC50 (shown in tables I and II as […] EC50) and % activation to be calculated
A human hepatocellular carcinoma cell line (HepG2) was subcultured into dishes and transiently transfected with DNA to allow expression of human PPARγ LBD bound to Gal4 DBD. Luciferase reporter gene and β-galactosidase control genes were co-transfected to enable activity to be measured. After 24 hours, cells were exposed to compounds in the concentration range of 0.1 nM-100 μM and left for a further 24 hours. Luciferase activity is determined by luminometry and PPARγ activation is expressed as a ratio of luciferase activity to β-galactosidase activity to account for transfection efficiency. Potency is described by an EC50 defined as the concentration of compound producing receptor activation equivalent to 50% of the maximum for that compound (shown in Table I as transfection EC50). The maximum fold activation is a measure of efficacy and is expressed as a percentage of a reference full agonist run in the same assay. Efficacy is described by % activation of receptor relative to a standard thiazolidinedione (TZD) full agonist.

Row | pIC50 [1] | Emax [2] [%] | pEC50 [2] | Compound
1 | 8.96 | 38 | 6.32 | CCc1nc2c(C)cc(CCC(O)CC)nc2n1[C@H]1CCc2cc(-c3ccccc3-c3nnn[nH]3)ccc21 (stereo partly drawn) [Example 44, 1-(3-((1S)-5-(2-(1H-tetrazol-5-yl)phenyl)-2,3-dihydro-1H-inden-1-yl)-2-ethyl-7-methyl-3H-imidazo[4,5-b]pyridin-5-yl)pentan-3-ol]
2 | 8.96 | 32 | 6.85 | CCc1nc2c(C)cc(CC[C@H](O)CC)nc2n1[C@H]1CCc2cc(-c3ccccc3-c3nnn[nH]3)ccc21 [Example 45, (R)-1-(3-((1S)-5-(2-(1H-tetrazol-5-yl)phenyl)-2,3-dihydro-1H-inden-1-yl)-2-ethyl-7-methyl-3H-imidazo[4,5-b]pyridin-5-yl)pentan-3-ol]
3 | 8.92 | 26 | 6.77 | CCc1nc2c(C)cc(CC[C@@H](O)CC)nc2n1[C@H]1CCc2cc(-c3ccccc3-c3nnn[nH]3)ccc21 [Example 46, (S)-1-(3-((1S)-5-(2-(1H-tetrazol-5-yl)phenyl)-2,3-dihydro-1H-inden-1-yl)-2-ethyl-7-methyl-3H-imidazo[4,5-b]pyridin-5-yl)pentan-3-ol]
4 | 8.89 | 34 | 6.26 | CCc1nc2c(C)cc(CCCO)nc2n1[C@H]1CCc2cc(-c3ccccc3-c3nnn[nH]3)ccc21 [Example 47, 3-(3-((1S)-5-(2-(1H-tetrazol-5-yl)phenyl)-2,3-dihydro-1H-inden-1-yl)-2-ethyl-7-methyl-3H-imidazo[4,5-b]pyridin-5-yl)propan-1-ol]

Second part, the molecule before the results:

Row | Compound | pIC50 [1] | Emax [2] [%] | pEC50 [2]
5 | CCCc1nc2c(C)cc(CC[C@@H](C)O)nc2n1[C@H]1CCc2cc(-c3ccccc3-c3nnn[nH]3)ccc21 [Example 40, (R)-4-(3-((1S)-5-(2-(1H-tetrazol-5-yl)phenyl)-2,3-dihydro-1H-inden-1-yl)-7-methyl-2-propyl-3H-imidazo[4,5-b]pyridin-5-yl)butan-2-ol] | 9.10 | 20 | 6.11
6 | CCCc1nc2c(C)cc(CC[C@H](C)O)nc2n1[C@H]1CCc2cc(-c3ccccc3-c3nnn[nH]3)ccc21 [Example 41, (S)-4-(3-((1S)-5-(2-(1H-tetrazol-5-yl)phenyl)-2,3-dihydro-1H-inden-1-yl)-7-methyl-2-propyl-3H-imidazo[4,5-b]pyridin-5-yl)butan-2-ol] | 9.05 | 21 | 6.02
7 | CCc1nc2c(C)cc(CCC3(O)CCCC3)nc2n1[C@H]1CCc2cc(-c3ccccc3-c3nnn[nH]3)ccc21 [Example 42, 1-(2-(3-((1S)-5-(2-(1H-tetrazol-5-yl)phenyl)-2,3-dihydro-1H-inden-1-yl)-2-ethyl-7-methyl-3H-imidazo[4,5-b]pyridin-5-yl)ethyl)cyclopentanol] | 8.96 | 29 | 6.81
8 | CCCc1nc2c(C)cc(CCC3(O)CCCC3)nc2n1[C@H]1CCc2cc(-c3ccccc3-c3nnn[nH]3)ccc21 [Example 43, 1-(2-(3-((1S)-5-(2-(1H-tetrazol-5-yl)phenyl)-2,3-dihydro-1H-inden-1-yl)-7-methyl-2-propyl-3H-imidazo[4,5-b]pyridin-5-yl)ethyl)cyclopentanol] | 9.00 | 20 | 6.08
9 | CCc1nc2c(C)cc(CCCOC)nc2n1[C@H]1CCc2cc(-c3ccccc3-c3nnn[nH]3)ccc21 [Example 48, 3-((1S)-5-(2-(1H-tetrazol-5-yl)phenyl)-2,3-dihydro-1H-inden-1-yl)-2-ethyl-5-(3-methoxypropyl)-7-methyl-3H-imidazo[4,5-b]pyridine] | 8.96 | 21 | 6.72
10 | CCCc1nc2c(C)cc(CCC(C)O)nc2n1[C@H]1CCc2cc(-c3ccccc3-c3nnn[nH]3)ccc21 (stereo partly drawn) [Example 49, 4-(3-((1S)-5-(2-(1H-tetrazol-5-yl)phenyl)-2,3-dihydro-1H-inden-1-yl)-7-methyl-2-propyl-3H-imidazo[4,5-b]pyridin-5-yl)butan-2-ol] | 8.80 | 18 | 6.09
